In EP0380554B1, “VASOACTIVE PEPTIDES” (Ferring AB, priority 1987, dated 1993):

Tested on: anaesthetised Sprague Dawley rats
Test: Blood pressure test (4-point test against the standard AVP)
Format: in vivo
Conditions: result in words; for potency in respect of blood pressure increase: maximal blood pressure increase after intravenous injections, rats previously treated with dibenamine, related to standard AVP, compared with known derivatives 2 and 3; for specificity (ratio of potency blood pressure/potency antidiuresis, BP/AD): ratio of blood pressure potency to antidiuretic potency, compared with known compounds 1, 2 and 3; for length of the effect (index of persistence, I.P.): duration of the blood pressure effect in relation to standard AVP, compared with known substances 1, 2 and 3
Description: Vasotocin derivatives according to the invention have been tested for potency of both blood pressure and antidiuretic activity in a so-called 4-point test, i.e. the activity of the test substances has been related to a standard preparation (AVP = arginine-vasopressin), and the effects of two dose levels for each substance have been analysed. In addition, two known pressor-specific analogs (VT derivatives) have been tested for a comparison, namely 1-mpa-2-Phe-8-Orn-VT (mpa = 3-mercaptopropionyl) (Huguenin, R.L., Boissonnas, R.A., 1966. Helv. Chim. Acta, 49, 711), and 2-Phe-8-Orn-VT (SE-332993, Sandoz).
Blood pressure tests were carried out on anaesthetised Sprague Dawley rats (about 250 g), previously treated with dibenamine (Dekanski, J., 1952. Br. J. Pharmacol. 7, 567). Maximal blood pressure increase after intravenous injections of peptide was used as a measure of the effect, expressed as intensity.
In addition to potency determination based on effect intensity, a measure of the length of the effect has been stated (index of persistence (I.P.), Pli ? ka, V., 1966. Arzheim. Forsch. 16, 886). This dimensionless factor is a measure of the effect duration of the respective analog in relation to the standard AVP.
In these two tests, a comparison was made between the effects of the respective derivative and the effect of a standard preparation, AVP, and potency was determined with the aid of a 4-point test and is indicated in international units per milligram (IU/mg) (Stürmer, E., i: Handbook of Experimental Pharmacology, 1966, Vol 23, pp 130-189).

Row | Substance | potency in respect of blood pressure increase | specificity (ratio of potency blood pressure/potency antidiuresis, BP/AD) | length of the effect (index of persistence, I.P.)
1 | 1-Hmp-2-Phe-8-Dab-VT [compound 5] | very high potency | equivalent or higher specificity | 
2 | 1-Hmp-2-Phe-8-Orn(Ala)-VT [compound 6] | surprisingly high blood pressure potency | adequate specificity | considerably prolonged effect
3 | 1-Hmp-2-Phe-8-Orn-VT [compound 4] | very high potency | equivalent or higher specificity | 
4 | Gly^o-1-Hmp-2-Phe-8-Orn-VT [compound 7] | surprisingly high blood pressure potency | adequate specificity | considerably prolonged effect
